Source: US6779468B1, “Method and pharmaceutical composition for iron delivery in hemodialysis and peritoneal dialysis patients” (priority 1997, dated 2004)
Several values for one entry are separate records, joined by “and”; a condition that tells them apart may be missing. Equal values may be shown once. Entries after “also recorded” stand apart in the source; their conditions may differ.

Legend:
[1] = literature reports; cited from earlier work
[2] = Phase I/II clinical study of dialysate iron in maintenance hemodialysis patients; format: in vivo, human; settings: for reticulocyte hemoglobin (Retic-Hgb): month 2
Protocol: All subjects in the study were receiving maintenance hemodialysis for end stage kidney failure, and requiring erythropoietin and intravenous iron to maintain hemoglobin in the 10-12 gm/dl range. After obtaining an informed consent, patients were enrolled and oral iron was discontinued. All patients received maintenance intravenous iron (50-100 mg every 1-2 weeks) during a 4 week long pre-treatment phase. The last two weeks of this pre-treatment period were used to establish the “Baseline” serum iron and hematological parameters. In the Treatment Phase, ten patients were dialyzed with iron containing dialysate (Dialysate-Fe group) for a period of 4 months. […] Eleven control patients (IV-Fe Group) continued to receive 50-200 mg iron intravenously every 1-2 weeks, for the entire study period of 6.5 months.
The initial doses were 50 mg elemental iron weekly.
Increased availability of iron to marrow cells may improve responsiveness to erythropoietin, thereby raising the hemoglobin and hematocrit. Hemoglobin and hematocrit were monitored every week, and in the event of improved erythropoiesis, the doses of erythropoietin were reduced by 10% every two weeks or as needed, to maintain a stable hemoglobin.
According to the National Kidney Foundation-Dialysis Outcomes Quality Initiative (NKF-DOQI) recommendations, most hemodialysis patients should be administered intravenous iron with every dialysis session or every 1-2 weeks (maintenance therapy). […] This was the basis why the control group was maintained on regular doses of intravenous iron, while oral iron was discontinued. This being the standard of care, the subjects on maintenance intravenous iron (IV-Fe Group) served as the control against the experimental group receiving dialysate iron therapy (Dialysate-Fe Group).
A random number generator was used to generate a list of 24 numbers. Odd and even numbers were assigned A or B designation respectively. A list of 23 patients was created based on the order in which consent was obtained for participation in the study. Patients were assigned to groups A or B based on their order in the list.
When a relative iron deficiency was suspected bolus doses of 100-200 mg iron were administered intravenously with each dialysis, over 1-5 consecutive dialysis sessions.
Based on the NKF-DOQI guidelines, patients in IV-Fe group were prescribed maintenance amount of intravenous iron from 25 to 100 mg/week. When a relative iron deficiency was suspected, bolus doses of 100-200 mg iron were administered intravenously with each dialysis, over 5-10 consecutive dialysis sessions.
Except for plotting of individual patient variables over time, the iron study data has been summarized prior to analysis. Descriptive analysis was performed. Most of the analysis presented here, uses the data averaged over four or six/seven week intervals. A four week interval corresponds to the length of time each dose level was used during the dose escalation phase of the study. […] (See Figures 4-21)
The baseline period, labeled month 0, included data for the four weeks immediately prior to the start of the intervention. (There was some data available for some or all the fifth week prior to the intervention, but data from this week is omitted from the formal data analysis.)
Weeks 1 to 4, when the dialysate dose of 2 μg/dl was employed, are labeled month 1, weeks 5 to 8 labeled month 2, weeks 9 to 12 labeled ‘month 3’, weeks 13 to 16 labeled month 4, weeks 17 to 20 labeled month 5, and weeks 21 to 26 (or 27) are labeled month 6.

[3] = baseline, before treatment phase

Compound	hypocalcemia / toxic effects [1]	TIBC adjusted for the baseline values, versus IV-Fe group ([2]; at 6 months, p<0.05)	serum ferritin (mean±S.D.) [2, 3] [µg/L]	total iron binding capacity (TIBC, mean±S.D.) [2, 3] [µg/dL]	hematocrit cycling ([2]; dialysate route during every dialysis session)	reticulocyte hemoglobin (Retic-Hgb) [2] [pg]	average weekly dose of intravenous iron ([2]; month 6) [mg]	patients requiring additional intravenous iron supplements ([2]; month 6)	serum ferritin (mean±S.D.) ([2]; month 6) [µg/L]	maintenance of hemoglobin ([2]; over a period of 6 months)	patients in whom iron balance is maintained without supplemental oral or intravenous iron ([2]; over a period of 6 months)	reduction of requirements for intravenous iron ([2]; over a period of 6 months)	average weekly dose of intravenous iron ([2]; pretreatment period (month 0, baseline), all patients on maintenance intravenous iron) [mg]	requirement for intravenous iron ([2]; p≦0.002 with 8-12 μg/dl dialysate iron)	serum Fe and transferrin saturation (at 30 minutes of peritoneal dialysis, dialysate iron 500 μg/dl, day 21, P<0.03)	time for mean serum iron and transferrin saturation to increase into the normal range (iron deficient rabbits, dialysate iron 500 μg/dl, day 21) [min]	duration of increase in serum iron and transferrin saturation (peritoneal dialysis for a total of 2 hours)	average weekly dose of intravenous iron ([2]; pretreatment period (month 0, baseline), all patients on maintenance intravenous iron, listed as IV-Fe)
O=P([O-])([O-])OP(=O)([O-])[O-].[Sn+2].[Sn+2] [stannous pyrophosphate]	hypocalcemia and immediate toxic effects																	
Ferric pyrophosphate		significantly higher	154 ± 120	222.3 ± 43.8	abolishes hematocrit cycling	28.4 ± 0.9	8.9	2 out of the 10	154 ± 120	maintains hemoglobin without an increase in erythropoietin requirement	approximately 80%	about 80%	68.7	significantly reduced; also recorded: decline in intravenous iron requirement	significant increase	≤ 30	sustained for the duration of the experiment	
iron dextran [reference compound]			261 ± 211	192.7 ± 48.1		27.0 ± 1.0	56.2		261 ± 211									59.6 mg and 68.7 mg
